Experimental data: patent US9326513B2, “Fungicidal compositions” (Syngenta Participations AG, priority 2011, dated 2016)
Where “and” joins values, the source holds several entries; their conditions need not be identical. Equal values may be shown once. Read-outs that look alike come from different tables or passages of the source.

Assays:
[1] = test system: Blumeria graminis f. sp. tritici (Erysiphe graminis f. sp. tritici); experiment: Blumeria graminis f. sp. tritici / wheat / leaf disc preventative (powdery mildew on wheat); assay type: in vivo; details: foliar, compared to untreated control leaf disks, read-out: disease control
Outline: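 Wheat leaf segments (cv. Kanzler) on agar were sprayed with formulated compound in water, inoculated with powdery mildew 1 day later, and kept at 20° C, 60% rh (24 h dark, then 12 h light/12 h dark). Percent disease control versus untreated scored 6-8 days after application; tested at 200 ppm.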

[2] = test system: Puccinia recondita f. sp. tritici; experiment: Puccinia recondita f. sp. tritici / wheat / leaf disc preventative (brown rust); assay type: in vivo; details: foliar, compared to untreated control leaf disks, read-out: disease control
Text: Puccinia recondita f. sp. tritici/Wheat/Leaf Disc Preventative (Brown Rust) Wheat leaf segments cv. Kanzler were placed on agar in multiwell plates (24-well format) and sprayed with the formulated test compound diluted in water. The leaf disks were inoculated with a spore suspension of the fungus 1 day after application.

[3] = test system: Puccinia recondita f. sp. tritici; experiment: Puccinia recondita f. sp. tritici / wheat / leaf disc curative (brown rust); assay type: in vivo; details: foliar, compared to untreated control leaf disks, read-out: disease control
Method: Puccinia recondita f. sp. tritici/Wheat/Leaf Disc Curative (Brown Rust) Wheat leaf segments cv. Kanzler are placed on agar in multiwell plates (24-well format). The leaf segments are inoculated with a spore suspension of the fungus. Plates were stored in darkness at 19° C. and 75% rh. The formulated test compound diluted in water was applied 1 day after inoculation.

[4] = test system: Monographella nivalis (syn. Microdochium nivale, Fusarium nivale); experiment: Monographella nivalis (snow mould, foot rot of cereals), PDB microtiter plate, visual after 72 hrs; assay type: cell-based
Botrytis cinerea = Botrytis cinerea (gray mould), PDB microtiter plate, visual after 72 hrs; assay type: cell-based; details: Botrytis cinerea; for inhibition at 0.00390625 ppm: rate 0.00390625 ppm; for inhibition at 0.0078125 ppm: rate 0.0078125 ppm; for inhibition at 0.015625 ppm: rate 0.015625 ppm; for inhibition at 0.03125 ppm: rate 0.03125 ppm; for inhibition at 0.03125 ppm / inhibition at 0.0625 ppm: read-out: Activity (%); for inhibition at 0.0625 ppm: rate 0.0625 ppm; for inhibition at 0.125 ppm: rate 0.125 ppm; for inhibition at 0.25 ppm: rate 0.25 ppm; for inhibition at 0.5 ppm: rate 0.5 ppm; for inhibition at 1 ppm: rate 1 ppm; for inhibition at 2 ppm: rate 2 ppm
Septoria tritici [5] = experiment: Septoria tritici (leaf blotch), PDB microtiter plate, visual after 72 hrs; assay type: cell-based; details: Zymoseptoria tritici, single compound; for inhibition at 0.25 ppm: read-out: Activity (%)
Septoria tritici [6] = experiment: Septoria tritici (leaf blotch), YBG microtiter plate, photometric growth inhibition after 6 days; assay type: cell-based; details: Zymoseptoria tritici, 144 h, solo; for inhibition of growth at 0.078125 ppm: rate 0.078125 ppm; for inhibition of growth at 0.15625 ppm: rate 0.15625 ppm, read-out: Activity; for inhibition of growth at 0.3125 ppm: rate 0.3125 ppm; for inhibition of growth at 1.25 ppm: rate 1.25 ppm
Text: (§1) In the following Tables ‘Activity (%)’ means the assessed experimental activity (% disease control in this test when compared to untreated control leaf disks under the same conditions, which show extensive disease development) and “P” is the expected value calculated (expected) activity according to the COLBY formula (see above). The column headed ‘S?’ indicates whether or not synergy was observed, with ‘y’ meaning that synergy was observed.
Septoria tritici (Leaf Blotch):
After placing solutions of the test compounds (containing 0.2% DMSO) into a microtiter plate (96-well format), an equal amount of the nutrient broth (YBG) was added to each of the well. Finally the fungal spore solution was added. The test plates were incubated at 20° C. The inhibition of growth was determined photometrically after 6 days and the activity calculated in relation to untreated control.

Sclerotinia sclerotiorum = Sclerotinia sclerotiorum on oilseed rape, preventive treatment; assay type: in vivo; details: solo, 1 day preventive, 11 days after application
Text: as §1
Sclerotinia sclerotiorum on Oilseed Rape, Preventive Treatment
The compound activity was tested under 1 day preventive conditions. Oilseed rape plants with 3 unfolded leafs were sprayed with a track sprayer and 200 I/ha spray volume with the test compounds, either solo or in tankmix as shown in the table below.
1 day after application the plants were infested with a solution of Sclerotinia sclerotiorum mycelium. The plants were placed under plastic hoods and high humidity conditions in a climate chamber at 14 h day/10 h night cycle and 15° C. Disease infestation was evaluated visually 11 days after application and average activity calculated in relation to disease severity on untreated check.

Sphaerotheca fuliginea = Sphaerotheca fuliginea (powdery mildew) on cucumber, preventive treatment; assay type: in vivo; details: solo, 2 days preventive, 10 days after application
Text: In the following Tables 'Activity (%)' means the assessed experimental activity (% disease control in this test when compared to untreated control leaf disks under the same conditions, which show extensive disease development) and “P” is the expected value calculated (expected) activity according to the COLBY formula (see above). The column headed 'S?' indicates whether or not synergy was observed, with 'y' meaning that synergy was observed. Sphaerotheca fuliqinea (Powdery Mildew) on Cucumber, Preventive Treatment […] Cucumber plants with unfolded cotyledons were sprayed with a roomsprayer and 40 ml/4 plants spray volume with the test compounds, either solo or in […] shown in the table below. 2 days after application the plants were infested with spores of Sphaerotheca fuliginea.

[7] = test system: Fusarium graminearum and Fusarium culmorum; assay type: in vivo; details: solo, 200 g a.i./ha; wheat, 1 day preventive, 9 days after application
[8] = test system: Phakopsora pachyrhizi (triazole tolerant soybeanrust strain); experiment: Phakopsora pachyrhizi on soybean, preventive treatment; assay type: in vivo; details: solo, soybean leaf discs, 1 day preventive, 11 days after application
Septoria tritici [9] = experiment: Septoria tritici on wheat, preventive treatment; assay type: in vivo; details: solo, wheat Riband, 1 day preventive, 18 days after application
[10] = Monographella nivalis, applied alone, 0.015625 ppm
[11] = Monographella nivalis, applied alone, 0.03125 ppm
[12] = Monographella nivalis, applied alone, 0.0625 ppm
[13] = Monographella nivalis, applied alone, 0.125 ppm
[14] = Monographella nivalis, applied alone, 2 ppm

CCN(C)/C=N/c1cc(Br)c(OC(C)c2cc(F)cc(F)c2)nc1C (centres unmarked) [Q.113]
39%: inhibition of growth at 0.625 ppm (Septoria tritici [6]; rate 0.625 ppm) | Activity (Sclerotinia sclerotiorum; rate 100 ppm)
70%: inhibition at 2 ppm [4, 14] | inhibition at 2 ppm ([4]; Monographella nivalis, applied alone, rate 2 ppm)
0%: inhibition at 0.00390625 ppm ([4]; Monographella nivalis, applied alone, 0.00390625 ppm) | inhibition at 0.0078125 ppm ([4]; Monographella nivalis, applied alone, 0.0078125 ppm) | inhibition at 0.015625 ppm [4, 10] | inhibition at 0.03125 ppm [4, 11] | inhibition at 0.0625 ppm [4, 12] | inhibition at 0.125 ppm [4, 13] | inhibition at 0.25 ppm ([4]; Monographella nivalis, applied alone, 0.25 ppm) | inhibition at 0.00390625 ppm (Botrytis cinerea; alone) | inhibition at 0.0078125 ppm (Botrytis cinerea; alone) | inhibition at 0.015625 ppm (Botrytis cinerea; alone) | inhibition at 0.03125 ppm (Botrytis cinerea; alone) | inhibition at 0.0625 ppm (Botrytis cinerea; alone) | inhibition at 0.125 ppm (Botrytis cinerea; alone) | inhibition at 0.25 ppm (Botrytis cinerea; alone) | inhibition at 0.5 ppm (Botrytis cinerea; alone) | inhibition at 1 ppm (Botrytis cinerea; alone) | inhibition at 2 ppm (Botrytis cinerea; alone) | inhibition at 0.00390625 ppm (Septoria tritici [5]) | inhibition at 0.0078125 ppm (Septoria tritici [5]) | inhibition at 0.015625 ppm (Septoria tritici [5]) | inhibition at 0.03125 ppm (Septoria tritici [5]) | inhibition at 0.0625 ppm (Septoria tritici [5]) | inhibition at 0.125 ppm (Septoria tritici [5]) | inhibition at 0.25 ppm (Septoria tritici [5]) | inhibition at 0.5 ppm (Septoria tritici [5]) | inhibition at 1 ppm (Septoria tritici [5]) | inhibition at 2 ppm (Septoria tritici [5]) | Activity (Sphaerotheca fuliginea; rate 0.2 ppm) | Activity (Sphaerotheca fuliginea; rate 0.6 ppm) | Activity (Sphaerotheca fuliginea; rate 2 ppm) | Activity (Septoria tritici [9]; 3 g a.i./ha)
42%: inhibition of growth at 0.15625 ppm (Septoria tritici [6]) | inhibition of growth at 1.25 ppm (Septoria tritici [6])
23%: Activity [7]
28%: inhibition of growth at 0.0390625 ppm (Septoria tritici [6]; rate 0.0390625 ppm)
34%: inhibition of growth at 0.3125 ppm (Septoria tritici [6])
1%: Activity ([8]; rate 0.5 g ai/ha) | Activity (Septoria tritici [9]; 1 g a.i./ha)
25%: Activity ([8]; rate 2 g ai/ha)
63%: inhibition of growth at 10 ppm (Septoria tritici [6]; rate 10 ppm)
31%: inhibition of growth at 0.078125 ppm (Septoria tritici [6])
53%: Activity (Septoria tritici [9]; 81 g a.i./ha)
15%: inhibition of growth at 0.0195312 ppm (Septoria tritici [6]; rate 0.01953125 ppm)
20%: Activity (%) ([4]; applied alone, 0.5 ppm) | Activity (%) ([4]; applied alone, 1 ppm) | Activity (%) ([4]; applied alone, rate 0.5 ppm) | Activity (%) ([4]; applied alone, rate 1 ppm)
2%: Activity (%) ([4]; applied alone, rate 0.125 ppm) | Activity (%) ([4]; applied alone, rate 0.25 ppm) | Activity (Sclerotinia sclerotiorum; rate 25 ppm) | Activity (Sclerotinia sclerotiorum; rate 50 ppm)
≥ 50%: pest or weed control at 200 ppm [1] | pest or weed control at 200 ppm [2] | pest or weed control at 200 ppm [3]

CCN(C)/C=N/c1cc(Br)c(OC2Cc3ccccc3C2)nc1C [Q.062]
13%: Activity ([8]; rate 2 g ai/ha)
51%: inhibition of growth at 1.25 ppm (Septoria tritici [6])
39%: inhibition of growth at 0.15625 ppm (Septoria tritici [6])
48%: inhibition of growth at 2.5 ppm (Septoria tritici [6]; rate 2.5 ppm)
31%: inhibition of growth at 0.0078125 ppm (Septoria tritici [6]; rate 0.0078125 ppm)
61%: Activity (Septoria tritici [9]; 81 g a.i./ha)
37%: inhibition of growth at 0.3125 ppm (Septoria tritici [6])
64%: inhibition of growth at 5 ppm (Septoria tritici [6]; rate 5 ppm)
≥ 50%: pest or weed control at 200 ppm [1] | pest or weed control at 200 ppm [2] | pest or weed control at 200 ppm [3]
2%: Activity (Sclerotinia sclerotiorum; rate 50 ppm) | Activity (Septoria tritici [9]; 1 g a.i./ha)
32%: inhibition of growth at 0.00390625 ppm (Septoria tritici [6]; rate 0.00390625 ppm)
50% and 71%: Activity (Septoria tritici [9]; 27 g a.i./ha)
26%: Activity (Sclerotinia sclerotiorum; rate 100 ppm)
70%: inhibition at 1 ppm ([4]; Monographella nivalis, single compound, rate 1 ppm)
50%: inhibition at 0.5 ppm ([4]; Monographella nivalis, single compound, rate 0.5 ppm)
7%: Activity (Sphaerotheca fuliginea; rate 2 ppm)
17%: Activity [7]
0%: inhibition at 0.015625 ppm [4, 10] | inhibition at 0.03125 ppm [4, 11] | inhibition at 0.0625 ppm [4, 12] | inhibition at 0.125 ppm [4, 13] | inhibition at 0.015625 ppm ([4]; Monographella nivalis, single compound, rate 0.015625 ppm) | inhibition at 0.03125 ppm ([4]; Monographella nivalis, single compound, rate 0.03125 ppm) | inhibition at 0.0625 ppm ([4]; Monographella nivalis, single compound, rate 0.0625 ppm) | inhibition at 0.125 ppm ([4]; Monographella nivalis, single compound, rate 0.125 ppm) | inhibition at 0.00390625 ppm (Botrytis cinerea; alone) | inhibition at 0.0078125 ppm (Botrytis cinerea; alone) | inhibition at 0.015625 ppm (Botrytis cinerea; alone) | inhibition at 0.03125 ppm (Botrytis cinerea; alone) | inhibition at 0.0625 ppm (Botrytis cinerea; alone) | inhibition at 0.1258 ppm (Botrytis cinerea; alone, rate 0.1258 ppm) | inhibition at 0.25 ppm (Botrytis cinerea; alone) | inhibition at 0.5 ppm (Botrytis cinerea; alone) | inhibition at 1 ppm (Botrytis cinerea; alone) | inhibition at 2 ppm (Botrytis cinerea; alone) | inhibition at 0.015625 ppm (Botrytis cinerea; single compound) | inhibition at 0.03125 ppm (Botrytis cinerea; single compound) | inhibition at 0.0625 ppm (Botrytis cinerea; single compound) | inhibition at 0.125 ppm (Botrytis cinerea; single compound) | inhibition at 0.25 ppm (Botrytis cinerea; single compound) | inhibition at 0.5 ppm (Botrytis cinerea; single compound) | inhibition at 1 ppm (Botrytis cinerea; single compound) | inhibition at 2 ppm (Botrytis cinerea; single compound) | inhibition at 0.00390625 ppm (Septoria tritici [5]) | inhibition at 0.0078125 ppm (Septoria tritici [5]) | inhibition at 0.015625 ppm (Septoria tritici [5]) | inhibition at 0.03125 ppm (Septoria tritici [5]) | inhibition at 0.0625 ppm (Septoria tritici [5]) | inhibition at 0.125 ppm (Septoria tritici [5]) | inhibition at 0.25 ppm (Septoria tritici [5]) | inhibition at 0.5 ppm (Septoria tritici [5]) | inhibition at 1 ppm (Septoria tritici [5]) | inhibition at 2 ppm (Septoria tritici [5]) | Activity (Sclerotinia sclerotiorum; rate 25 ppm) | Activity (Sphaerotheca fuliginea; rate 0.2 ppm) | Activity (Sphaerotheca fuliginea; rate 0.6 ppm) | Activity ([8]; rate 0.5 g ai/ha)
29%: inhibition of growth at 0.078125 ppm (Septoria tritici [6])
8% and 6%: Activity (Septoria tritici [9]; 3 g a.i./ha)
20%: inhibition at 2 ppm [4, 14] | inhibition at 0.25 ppm ([4]; Monographella nivalis, single compound, rate 0.25 ppm)
